Measured values published in the supplement of paper PMC10307832.

How the values were obtained:
Test in all cases: relative viability (nuclei count vs DMSO), 5 days (fraction); higher = more cells survive
IDH-C35 + Alpelisib = compound: Cc1ccccc1C(C(=O)NC1CCCCC1)N(C(=O)Cn1ccnc1C)c1cccc(F)c1 [IDH-C35] + Cc1nc(NC(=O)N2CCC[C@H]2C(N)=O)sc1-c1ccnc(C(C)(C)C(F)(F)F)c1 [Alpelisib] (partner 2 µM)
How it was run: (§1)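 A single step with final 0.05% Triton X-100, 1% formaldehyde and 1 ug/ml Hoechst fixed the cells and stained nuclei 5 days after treatment. Lung cancer cell lines in 1536-well plates had been treated by pin tool the day after seeding with one drug alone or a fixed anchor-drug dose plus five library-drug doses (not always all listed) in √10 steps, and nuclei were counted on 4× images. Relative viability is the ratio of nuclei in treated wells to nuclei in vehicle wells, taken as the median of duplicate plates.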

[1] = compound: CC1=C(C(=NN1)C)CC2=C(C3=C(S2)N(C(=O)N(C3=O)C)CC(C)C)C(=O)N4C[C@@H](CO4)O + N=C(N)NC(=N)NCCc1ccccc1 [Phenformin] (partner 250 µM)
How it was run: as §1

[2] = compound: CC1=C(C(=NN1)C)CC2=C(C3=C(S2)N(C(=O)N(C3=O)C)CC(C)C)C(=O)N4C[C@@H](CO4)O + CC1(C)CCC(c2ccc(Cl)cc2)=C(CN2CCN(c3ccc(C(=O)NS(=O)(=O)c4ccc(N[C@H](CCN5CCOCC5)CSc5ccccc5)c(S(=O)(=O)C(F)(F)F)c4)cc3)CC2)C1 [Navitoclax] (partner 0.5 µM)
How it was run: as §1

IDH-C35 + Luminespib = compound: Cc1ccccc1C(C(=O)NC1CCCCC1)N(C(=O)Cn1ccnc1C)c1cccc(F)c1 [IDH-C35] + CCNC(=O)c1noc(-c2cc(C(C)C)c(O)cc2O)c1-c1ccc(CN2CCOCC2)cc1 [Luminespib] (partner 0.01 µM)
How it was run: as §1

Cell Line | relative viability (IDH-C35 + Alpelisib; first compound 0.08 µM) | relative viability (IDH-C35 + Alpelisib; first compound 0.253 µM) | relative viability (IDH-C35 + Alpelisib; first compound 0.8 µM) | relative viability (IDH-C35 + Alpelisib; first compound 2.53 µM) | relative viability (IDH-C35 + Alpelisib; first compound 8 µM) | relative viability ([1]; first compound 0.0025 µM) | relative viability ([1]; first compound 0.007906 µM) | relative viability ([1]; first compound 0.025 µM) | relative viability ([1]; first compound 0.07906 µM) | relative viability ([1]; first compound 0.25 µM) | relative viability ([2]; first compound 0.0025 µM) | relative viability ([2]; first compound 0.007906 µM) | relative viability ([2]; first compound 0.025 µM) | relative viability ([2]; first compound 0.07906 µM) | relative viability ([2]; first compound 0.25 µM) | relative viability (IDH-C35 + Luminespib; first compound 0.08 µM) | relative viability (IDH-C35 + Luminespib; first compound 0.253 µM) | relative viability (IDH-C35 + Luminespib; first compound 0.8 µM) | relative viability (IDH-C35 + Luminespib; first compound 2.53 µM) | relative viability (IDH-C35 + Luminespib; first compound 8 µM)
HCC-78 | 0.361 | 0.323 | 0.322 | 0.397 | 0.331 | 0.795 | 0.842 | 0.574 | 0.671 | 0.575 | 0.834 | 0.743 | 0.868 | 0.716 | 0.768 | – | – | – | – | –
HCC-366 | 0.476 | 0.311 | 0.387 | 0.403 | 0.352 | 0.622 | 0.574 | 0.669 | 0.606 | 0.693 | 1.09 | 0.997 | 1.05 | 1.03 | 1.13 | – | – | – | – | –
HCC-827 | 0.917 | 0.897 | 1.04 | 1 | 0.75 | 0.379 | 0.408 | 0.425 | 0.407 | 0.399 | 0.983 | 1.08 | 1.03 | 1.04 | 1.04 | 0.788 | 0.526 | 0.472 | 0.569 | 0.516
HOP-62 | 1.07 | 0.876 | 0.953 | – | 0.85 | 0.649 | 0.564 | 0.656 | 0.624 | 0.861 | 1.15 | 1.03 | 0.857 | 1.08 | 0.857 | 0.944 | 0.849 | 0.822 | 0.923 | 0.927
IA-LM | 0.998 | 0.9 | 0.793 | 0.761 | 0.584 | – | – | – | – | – | 0.738 | 0.796 | 0.912 | 0.784 | 0.722 | – | – | – | – | –
LC-2-ad | 0.888 | 0.815 | 0.834 | 0.894 | 0.921 | 0.604 | 0.59 | 0.528 | 0.573 | 0.648 | 0.459 | 0.461 | 0.463 | 0.481 | 0.58 | 1.05 | 1.04 | 0.962 | – | 0.939
LCLC-97TM1 | 0.289 | 0.213 | 0.242 | – | 0.242 | 0.483 | 0.432 | 0.429 | 0.477 | 0.51 | 0.394 | 0.613 | 0.404 | 0.373 | 0.467 | 0.842 | 0.734 | 0.682 | 0.738 | 0.604
LCLC-103H | 1.05 | 0.979 | 0.918 | 0.963 | 1.09 | 0.329 | 0.367 | 0.393 | 0.341 | 0.317 | – | – | – | – | – | 0.93 | 0.999 | 0.95 | 0.959 | 0.859
LK-2 | 1.11 | 1.05 | 0.991 | 1.1 | 1.04 | 0.304 | 0.321 | 0.195 | 0.187 | 0.263 | 0.884 | 0.852 | 0.746 | 0.983 | 0.949 | 0.173 | 0.177 | 0.205 | 0.176 | 0.184
LOU-NH91 | 0.746 | 0.774 | 0.712 | 0.711 | 0.706 | 0.763 | 0.752 | 0.731 | 0.844 | 0.733 | 0.773 | 0.604 | 0.776 | 0.809 | 0.788 | 0.331 | 0.368 | 0.297 | 0.354 | 0.328
NCI-H358 | 0.916 | 0.871 | 0.746 | 0.857 | 0.915 | 0.35 | 0.395 | 0.337 | 0.311 | 0.36 | – | – | – | – | – | 0.526 | 0.388 | 0.283 | 0.26 | 0.242
NCI-H522 | – | – | – | – | – | 0.551 | 0.686 | 0.376 | 0.327 | 0.265 | – | – | – | – | – | 0.958 | 1 | 1.1 | 1.22 | 1
NCI-H650 | 1.07 | 1.13 | 1.17 | – | 1.03 | 0.499 | 0.431 | 0.4 | 0.458 | 0.472 | – | – | – | – | – | 0.783 | 0.766 | 0.79 | – | 0.799
NCI-H661 | 0.589 | 0.852 | 0.529 | 0.689 | 0.711 | 0.286 | 0.304 | 0.27 | 0.22 | 0.277 | – | – | – | – | – | 0.905 | 0.907 | 0.963 | 0.882 | 0.914
NCI-H1299 | 1.06 | 1.02 | 1.09 | 1.05 | 1.04 | – | – | – | – | – | 1.08 | 1.04 | 1.08 | 1.05 | 0.987 | – | – | – | – | –
NCI-H1563 | 0.947 | 0.877 | 1.01 | 0.84 | 0.925 | 0.667 | 0.666 | 0.729 | 0.711 | 0.667 | – | – | – | – | – | 0.538 | 0.563 | 0.558 | 0.508 | 0.536
NCI-H1623 | – | – | – | – | – | 0.465 | 0.408 | 0.514 | 0.525 | 0.378 | – | – | – | – | – | 0.435 | 0.503 | 0.502 | 0.559 | 0.439
NCI-H1650 | – | – | – | – | – | 0.536 | 0.473 | 0.457 | 0.506 | 0.46 | 1.37 | 1.22 | 1.2 | 1.27 | 1.21 | 0.207 | 0.182 | 0.214 | 0.2 | 0.199
NCI-H1703 | 0.379 | 0.372 | 0.405 | 0.343 | 0.309 | – | – | – | – | – | 1.36 | 1.4 | 0.972 | 0.928 | 0.744 | – | – | – | – | –
NCI-H2342 | – | – | – | – | – | 0.493 | 0.532 | 0.398 | 0.384 | 0.401 | – | – | – | – | – | 0.818 | 0.617 | 0.803 | 0.631 | 0.7
SW 900 | – | – | – | – | – | 0.735 | 0.675 | 0.535 | 0.779 | 0.589 | – | – | – | – | – | 0.175 | 0.178 | 0.181 | 0.179 | 0.162
